Read-outs that look alike come from different tables or passages of the source.
Tested on: human fetal liver fibroblasts (HFLF)
Assay: Glutamine transport assay (inhibition and kinetic analysis)
Type: cell-based
Experimental: FIG. 5. Functional and molecular assessment of ATB^0 expression in human fetal liver fibroblasts (HFLF) and cirrhotic liver tissue. A) Amino acid inhibition analysis of Na^+-dependent glutamine uptake in human fetal liver fibroblasts. Fibroblasts were isolated and cultured as described in the Methods section, and amino acid inhibition analysis of 50 μM L-glutamine uptake was carried out as described in FIG. 1. *p<0.010 vs. control. The Eadie-Hofstee plot of the kinetic analysis is shown as an inset, with the dashed lines representing the resolved high and low affinity components of the composite data (solid line). The derived values of the kinetic constants for each component are given in the Results section. B) Northern blot analysis of ATB^0 expression in HFLF. Radiolabeled cDNA probes were generated with the Megaprime™ kit as described in the Methods section, and hybridized to 20 μg of total RNA from HFLF. Exposure time was 24 h. C) RT-PCR and restriction enzyme analysis of ATB^0 expression in HFLF, normal and cirrhotic liver. The analysis was carried out exactly as described in FIG. 3. Omission of RT is shown for the normal liver sample. D) Expression of ATB^0 in biopsies from a patient with liver cirrhosis and hepatocellular carcinoma (HCC). Northern blot analysis of ATB^0 & SN1 expression were performed on RNA extracted from the snap-frozen biopsies. RNA isolation and northern blot analysis was carried out as described in the Methods section, with full-length riboprobes used for detection of transporter mRNA. Exposure times for the blots are shown to illustrate relative expression levels for ATB^0 in each of the samples.
Glutamine Transport Assays. Measurement of initial-rate glutamine uptake was carried out via the cluster-tray method originally described by Gazzola (21) as reported previously (6, 9). Briefly, after trypsinization hepatoma cells were plated at a density of 1×10^5 cells/well in 24-well culture plates (Costar Corp., Cambridge, Mass.) and allowed to grow to >80% confluence, typically one to two days later. For initial-rate measurements, the radiotracer utilized was L-[G-^3H] glutamine (Amersham Corp., Arlington Heights, Ill.) at 4 μCi/ml, in the presence of unlabeled L-glutamine at 50 μM. For kinetic studies, the amount of unlabeled glutamine in the transport buffer varied from 10 μM to 10 mM. All transport measurements were carried out at 37° C. and were terminated after 30 s by three rapid washes with an ice-cold phosphate-buffered saline solution. Intracellular radiolabeled glutamine was extracted with 0.2 ml/well of 0.2% sodium dodecyl sulfate (SDS) and 0.2 N NaOH; after 1 h, 0.1 ml of the lysate was neutralized with 10 μl of 2 N HCl and subjected to scintillation spectrophotometry in a Packard TopCount™ (Packard Instruments, Meriden, Conn.). The remaining lysate was utilized for the determination of cellular protein by the bicinchoninic acid (BCA) method (Pierce Chemical Co., Rockford, Ill.). Rates of glutamine transport were calculated from the cpm per sample, the specific activity of the uptake mix (in cpm/nmol) and normalized to cellular protein content in a Microsoft Excel® spreadsheet program. Transport values obtained in the absence of extracellular Na^+ (diffusion and Na^+-independent uptake) were subtracted from those in the presence of Na^+ (total uptake) to yield Na^+-dependent rates which are reported in units of nmol•mg^−1 protein•30 s^−1. All transport values depicted are the average±standard deviation of four separate determinations. Kinetic analysis of Eadie-Hofstee linearized transport data (v vs. v/[L-GLN]) was performed by regression analysis (Cricket Graph®, Computer Associates, Islandia, N.Y.). Nonlinear regression analysis was performed with DataDesk (Data Description, Inc. Ithaca, N.Y.) and Excel for two component Michaelis-Menten kinetics: v=((Vmax1×[S])/(Km1+[S])+(Vmax2×[S])/(Km2+[S])). […]

Km (read-out: Km, high affinity component): 163 µM | Km (read-out: Km, low affinity component): 1200 µM
Compound: NC(=O)CC[C@H](N)C(=O)O [glutamine, L-glutamine]
Vmax, high affinity component: 5.3 nmol•mg^−1 protein•30 s^−1 | Vmax, low affinity component: 3.1 nmol•mg^−1 protein•30 s^−1

— US20060280725A1, “Compositions and methods of treating and diagnosing hepatoma” (priority 2003, published 2006)
